The target of experiment [1] is T1, androgen receptor (Homo sapiens, UniProt P10275).
T1 sequence (P10275 1-920): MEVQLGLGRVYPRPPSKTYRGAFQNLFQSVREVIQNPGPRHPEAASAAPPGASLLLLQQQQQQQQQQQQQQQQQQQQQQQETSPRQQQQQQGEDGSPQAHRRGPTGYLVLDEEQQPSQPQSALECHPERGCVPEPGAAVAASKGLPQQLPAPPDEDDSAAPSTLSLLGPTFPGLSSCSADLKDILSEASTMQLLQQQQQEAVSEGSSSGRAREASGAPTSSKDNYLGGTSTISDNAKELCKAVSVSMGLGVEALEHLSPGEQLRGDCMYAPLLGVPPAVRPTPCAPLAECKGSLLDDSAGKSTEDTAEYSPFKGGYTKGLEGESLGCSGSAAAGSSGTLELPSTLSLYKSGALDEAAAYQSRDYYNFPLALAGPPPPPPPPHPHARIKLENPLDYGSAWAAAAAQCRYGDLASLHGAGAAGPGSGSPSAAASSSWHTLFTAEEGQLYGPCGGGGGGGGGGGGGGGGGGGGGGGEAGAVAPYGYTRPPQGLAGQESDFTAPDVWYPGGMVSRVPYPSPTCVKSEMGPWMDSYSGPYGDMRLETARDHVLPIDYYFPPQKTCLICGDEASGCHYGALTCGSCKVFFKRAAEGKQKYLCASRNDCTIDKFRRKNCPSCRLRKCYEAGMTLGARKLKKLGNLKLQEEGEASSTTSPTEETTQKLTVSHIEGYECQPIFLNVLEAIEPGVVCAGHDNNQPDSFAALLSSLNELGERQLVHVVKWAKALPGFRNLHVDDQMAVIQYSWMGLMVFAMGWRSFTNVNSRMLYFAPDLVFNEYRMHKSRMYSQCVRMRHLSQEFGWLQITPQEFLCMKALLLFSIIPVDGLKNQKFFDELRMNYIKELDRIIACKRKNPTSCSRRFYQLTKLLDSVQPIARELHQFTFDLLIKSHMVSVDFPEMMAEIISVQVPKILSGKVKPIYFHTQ
Kind of experiment: Androgen receptor binding test. More on the design: expressed in transfected cells. The method, then:
Using cytosol from progesterone receptor-expressing insect cells (Hi5), competitive binding to the progesterone receptor was determined from the ability to displace ^3H-progesterone as reference substance from the receptor.
3. Androgen Receptor Binding Test: […]

For experiment [2], the target named is T1, androgen receptor. Kind of experiment: Androgen receptor binding test. More on the design: expressed in transfected cells. The conditions noted are these: reference substance 3H-testosterone.
In experiment [3] the target is T2, mineralocorticoid receptor (Homo sapiens, UniProt P08235).
T2 sequence (P08235 1-984): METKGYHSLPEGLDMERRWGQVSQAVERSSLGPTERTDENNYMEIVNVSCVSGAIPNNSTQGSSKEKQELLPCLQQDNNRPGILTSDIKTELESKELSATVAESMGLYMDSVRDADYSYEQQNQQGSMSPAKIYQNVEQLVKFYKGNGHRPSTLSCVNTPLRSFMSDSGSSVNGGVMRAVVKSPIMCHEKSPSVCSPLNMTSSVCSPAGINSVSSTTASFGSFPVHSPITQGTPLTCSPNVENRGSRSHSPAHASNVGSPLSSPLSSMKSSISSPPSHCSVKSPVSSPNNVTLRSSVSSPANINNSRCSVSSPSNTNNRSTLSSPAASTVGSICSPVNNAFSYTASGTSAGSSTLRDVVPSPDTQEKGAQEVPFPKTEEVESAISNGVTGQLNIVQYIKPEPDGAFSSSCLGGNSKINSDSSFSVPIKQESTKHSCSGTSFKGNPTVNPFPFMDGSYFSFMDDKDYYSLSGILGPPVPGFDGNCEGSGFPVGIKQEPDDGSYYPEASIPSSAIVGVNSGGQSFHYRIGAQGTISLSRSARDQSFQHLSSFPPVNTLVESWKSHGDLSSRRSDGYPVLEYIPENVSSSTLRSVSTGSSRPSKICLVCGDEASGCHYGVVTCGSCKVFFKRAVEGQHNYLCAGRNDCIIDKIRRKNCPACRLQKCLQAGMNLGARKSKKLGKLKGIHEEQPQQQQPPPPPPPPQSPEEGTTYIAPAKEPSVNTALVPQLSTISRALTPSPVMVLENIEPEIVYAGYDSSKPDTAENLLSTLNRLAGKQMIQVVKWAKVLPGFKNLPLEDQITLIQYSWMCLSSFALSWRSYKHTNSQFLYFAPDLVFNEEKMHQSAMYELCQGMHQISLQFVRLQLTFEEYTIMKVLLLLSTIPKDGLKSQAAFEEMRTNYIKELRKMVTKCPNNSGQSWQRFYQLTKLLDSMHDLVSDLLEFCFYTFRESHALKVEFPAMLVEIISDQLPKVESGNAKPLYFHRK
Kind of experiment: Mineralocorticoid receptor binding test. Set-up: made in house; host or cells: Hi5 insect cells (cytosol). The conditions noted are these: reference substance 3H-aldosterone, cytosol from MR-expressing insect cells (Hi5). The method in brief: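 Competitive binding measured with cytosol from Hi5 insect cells expressing the receptor. Displacement of ^3H-aldosterone as reference ligand gave the readout.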

Experiment [4] deals with T1, androgen receptor. Kind of experiment: Androgenic/antiandrogenic action by transactivation test (PC3 reporter cells). Format: cell-based. Set-up: expressed in transfected cells; host or cells: PC3 cells. The method, then: The test compounds were added eight hours later, and the cells were incubated with the compounds for 16 hours. The tests were carried out in triplicate. At the end of incubation the medium containing the effector was removed and replaced with lysis buffer. After luciferase assay substrate (Promega, #E1501) had been added, the 96-well plates were then put in a microplate luminometer (Pherastar, BMG Labtech), and the luminescence was measured. The IC50 values were evaluated using software for calculating dose-effect relations.
6. Determination of Androgenic/Antiandrogenic Action by Means of Transactivation Tests:
The androgenic/antiandrogenic action of the test substances was determined as for the transactivation tests described above.
The following modifications were made: In this case reporter cell lines were used (PC3 cells) that express the androgen receptor, and a reporter construct that contains luciferase under the control of a steroid hormone-responsive promoter.
For determination of the antiandrogenic efficacy, 0.05 nM R1881 was added to the cells, in order to achieve almost maximum stimulation of the reporter gene.

[5] abbreviates: PC-3, read-out: Androgen receptor Agonism efficacy.
Where [6] appears, read: PC-3, read-out: Androgen receptor Antagonism efficacy.

The structures appear in SMILES notation. pEC50, pIC50: −log10 of the molar value. Read-outs that look alike come from different tables or passages of the source.

In general, pIC50 refers to −log10 of the IC50, conventionally taken in molar units. High values mean a low IC50, low ones a high IC50. Broadly, the pEC50 is −log10 of the EC50, conventionally taken in molar units. Take `C[C@]12CC[C@H]3[C@@H](CCC4=C(Cl)C(=O)CC[C@@H]43)[C@@H]1[C@H]1C[C@H]1[C@@]21C=CC(=O)O1` [Example 18, 4-Chloro-17β-hydroxy-15α,16α-methylene-19-nor-17α-pregna-4,20(Z)-dien-3-one-21-carboxylic acid γ-lactone]: the pIC50 at androgen receptor [1] was 6.85. In addition, the “Androgen receptor Competition factor” value at androgen receptor [2] was 7.3. For the same compound, the “Mineralocorticoid receptor (MR) Competition factor” value (shortened to “Mineralocorticoid receptor”) in experiment [3] is reported as 35.0. In addition, the pEC50 at androgen receptor [4] is 7.92. Moreover, the values for the Emax on androgen receptor [4] (setting [5]) and on androgen receptor [4] (setting [6]) were 71.5% and 5%, respectively.
On androgen receptor [1], `C[C@]12CC[C@H]3[C@@H](CCC4=CC(=O)CC[C@@H]43)[C@@H]1[C@@H]1C[C@@H]1[C@@]21C=CC(=O)O1` [Example 19, 17β-Hydroxy-15β,16β-methylene-19-nor-17α-pregna-4,20(Z)-dien-3-one-21-carboxylic acid γ-lactone] gave a negative logarithm of the IC50 (pIC50) of 7.28. Further, the “Androgen receptor Competition factor” value on androgen receptor [2] is 6.4. Moreover, in experiment [3], the “Mineralocorticoid receptor” value was determined as 187.0. Also, the pEC50 on androgen receptor [4] was 8.28. For the same compound, the Emax is 87.5% on androgen receptor [4] (setting [5]) and 5% on androgen receptor [4] (setting [6]).
Consider `C[C@@H]1CC2=CC(=O)CC[C@@H]2[C@H]2CC[C@@]3(C)[C@@H]([C@@H]4C[C@@H]4[C@@]34C=CC(=O)O4)[C@@H]21` [Example 23A, 17β-Hydroxy-7α-methyl-15β,16β-methylene-19-nor-17α-pregna-4,20(2)-dien-3-one-21-carboxylic acid γ-lactone], for which the pIC50 on androgen receptor [1] is 7.09. For the same compound, the “Androgen receptor Competition factor” value at androgen receptor [2] is given as 4.2. Moreover, in experiment [3], the “Mineralocorticoid receptor” value is on record as 1.9. In addition, at androgen receptor [4], the pEC50 was 7.72. The Emax on androgen receptor [4] (setting [5]) amounted to 63.6%; on androgen receptor [4] (setting [6]), 5%.
For the compound `CC[C@@H]1CC2=CC(=O)CC[C@@H]2[C@H]2CC[C@@]3(C)[C@@H]([C@@H]4C[C@@H]4[C@@]34C=CC(=O)O4)[C@H]12` [Example 24A, 7α-Ethyl-17β-hydroxy-15β,16β-methylene-19-nor-17α-pregna-4,20(Z)-dien-3-one-21-carboxylic acid γ-lactone], the negative logarithm of the IC50 (pIC50) is 6.80 at androgen receptor [1] and 7.96 on androgen receptor [4]. In addition, the “Androgen receptor Competition factor” value at androgen receptor [2] is given as 8.1. For the same compound, the “Mineralocorticoid receptor” value in experiment [3] is reported as 1.9. For the same compound, the pEC50 at androgen receptor [4] is 7.28. The Emax turned out to be 36.8% on androgen receptor [4] (setting [5]) and 22.5% at androgen receptor [4] (setting [6]).
For the compound `C=C[C@@H]1CC2=CC(=O)CC[C@@H]2[C@H]2CC[C@@]3(C)[C@@H]([C@@H]4C[C@@H]4[C@@]34C=CC(=O)O4)[C@@H]21` [Example 25A, 17β-Hydroxy-15β,16β-methylene-7α-vinyl-19-nor-17α-pregna-4,20(Z)-dien-3-one-21-carboxylic acid γ-lactone], the pIC50 on androgen receptor [1] was 7.43. For the same compound, at androgen receptor [2], the “Androgen receptor Competition factor” value amounted to 1.4. Also, the “Mineralocorticoid receptor” value in experiment [3] came out at 9.4. The pEC50 on androgen receptor [4] was 8.74. In addition, the Emax is 73.3% on androgen receptor [4] (setting [5]) and 5% on androgen receptor [4] (setting [6]).
The compound `C[C@]12CC[C@H]3[C@@H](CCC4=C(Cl)C(=O)CC[C@@H]43)[C@@H]1[C@@H]1C[C@@H]1[C@@]21C=CC(=O)O1` [Example 27, 4-Chloro-17β-hydroxy-15β,16β-methylene-19-nor-17α-pregna-4,20(Z)-dien-3-one-21-carboxylic acid γ-lactone] had a negative logarithm of the IC50 (pIC50) at androgen receptor [1] of 6.09. Further, the “Androgen receptor Competition factor” value at androgen receptor [2] amounted to 36.4. Besides, in experiment [3], the “Mineralocorticoid receptor” value came to 47.0. This compound also had a negative-log EC50 (pEC50) on androgen receptor [4] of 7.16. In addition, the Emax at androgen receptor [4] (setting [5]) was found to be 66.9%; at androgen receptor [4] (setting [6]) it was 5%.

(Values after US20110015162A1, “15,16-Methylene-17-hydroxy-19-nor-21-carboxylic acid-steroid Y-lactone derivative, use thereof and medicinal products containing the derivative” (Bayer Schering Pharma Aktiengesellschaft, priority 2007, published 2011).)
